The results in this text go back to PMC4947679, “Quantitative In Vitro and In Vivo Evaluation of Intestinal and Blood-Brain Barrier Transport Kinetics of the Plant N-Alkylamide Pellitorine” (BioMed Research International, 2016).

The data set in a line: Oral gavage pharmacokinetic experiment with rats. The following applies: rat. Format: in vivo, Wistar rats. How it is done:
Male and female Wistar rats weighing approximately 220 g were obtained from Bharat Serum and Vaccines Pvt. Ltd., Thane, India (registration number 103/99/CPCSEA) and were housed at CU Shah College of Pharmacy, SNDT Women's University, Santacruz, Mumbai, India (registration number 39/99/CPCSEA) where the experiments were carried out. Rats of 7-8 weeks of age were fasted overnight and used for the experiments.
A pellitorine dose solution was prepared using the Anacyclus pyrethrum extract. To the rats, 1.5 mL of a 0.73 mg pellitorine/g dose solution in 10 : 20 : 30 : 40 (w/w/w/w) EtOH : PG : Vit E-TPGS : PEG 400 was administered using a gavage needle (stainless steel, length of 3 inches, and 2.5 mm internal diameter). As blank, a solution containing EtOH, PG, Vit E-TPGS, and PEG without pellitorine was used. Each dose solution was orally administered to three female and three male rats. 1.5 mL blood was collected from the retro orbital vein at 1, 2, 3, 4, 6, and 8 h after administration of the dose solution and was centrifuged for 20 min at room temperature. Thereafter, the serum samples were immediately frozen at −80°C until bioanalysis. The animals were sacrificed at the end of the experiment by CO2 inhalation. Using GraphPad software (La Jolla, USA), the elimination rate constant k e (h^−1) is calculated using the following equation of a one-compartment model: C(t) = C 0 × e ^−ke×t, in which C(t) (ng/mL) is the concentration of pellitorine at time t (h) and C 0 the concentration of pellitorine at time t = 0 (ng/mL). The elimination half-life t 1/2,e (h) is calculated as ln(2)/k e.

In the case of `CCCCC/C=C/C=C/C(=O)NCC(C)C` [pellitorine, deca-2E,4E-dienoic acid isobutylamide], the k el (both sexes, Wistar, serum, po, 5 mg pellitorine/kg, oral gavage, 5 mg pellitorine/kg (Anacyclus pyrethrum extract dose solution), one-compartment model, read-out: serum elimination rate constant k e (converted)) is 8.33e-05 s⁻¹. Further, the half-life (both sexes, Wistar, serum, oral gavage, 5 mg pellitorine/kg, one-compartment model, read-out: elimination half-life t 1/2,e (converted)) is 2.46 h. For the setting “oral administration of 5 mg pellitorine/kg”, this compound had a maximum serum concentration of 26 ng/mL. For the same compound, the “serum elimination rate constant k e” value (oral gavage, 5 mg pellitorine/kg (Anacyclus pyrethrum extract dose solution), one-compartment model) stood at 0.28 h⁻¹.
